Assay results from US20250163384A1, “ORGANOIDS DERIVED FROM HUMAN COLONIC CELLS AND METHODS OF MAKING AND USING THE SAME” (priority 2022, published 2025).

Columns and labels:
Assay type in all cases: cell-based, human
[1] = tested on: GiLA1 organoid monolayers; test: Apoptosis-induced ERK waves and cell movement (particle image velocimetry) in GiLA1 organoid monolayers; settings: 5 μM Gefitinib (FIG. 3G), after an apoptotic event
Protocol: 384-well plates were imaged with fluorescent microscopy on a Nikon Eclipse TI2 automated microscope. For quantification of wave dynamics, organoids were imaged every 10-30 min. Tracking and segmentation of single cells in time lapse images in FIG. 2 was performed using the MATLAB program p53Cinema (Reyes et al., 2019). Analysis of the extracted data was performed in MATLAB. For the ERK activity heat maps in FIG. 3, images of the ERK-KTRmRuby2 and the H2B-iRFP670 were captured every 7 min for 24 hr. For each frame, individual nuclei were segmented using a MATLAB script developed in-house that identifies nuclei based on the H2B-iRFP670 images. The cytoplasmic ERK-KTRmRuby2 signal was obtained by creating a two pixel wide annulus surrounding the nucleus and averaging the intensity. Cells with active ERK were identified as having a mean ERK-KTR cytoplasmic signal>the mean ERK-KTR nuclear signal. The density-based spatial clustering of applications with noise algorithm (dbscan, MATLAB, 2021b) was performed on the centroids of ERK active cells to identify spatial clusters of cells with active ERK. A boundary was drawn around the spatial clusters using the boundary algorithm in MATLAB. […]
To determine the properties of the ERK waves, about 450 cells were tracked and their ERK activity was assessed over time following an apoptotic event (FIG. 3D, left panel and FIG. 3E). […]

[2] = tested on: GiLA1 organoid monolayers; test: Tissue patterning (nodes / cell clusters) in GiLA1 organoid monolayers; settings: for speed of node loss / patterning defects: GiLA1 monolayers, ERK activation methods compared
Protocol: SCREENSTAR 384-well black plates (Grenier #781866) were coated with ice cold Matrigel (CB40230C) diluted 1:40 in Serum-free Advanced-DMEM F12 media (SFM) for 1 hr. Monolayers were prepared using our previously described protocol (Thorne et al., 2018; Sanman et al., 2020). Briefly, cells were removed from 3D Matrigel and resuspended in ice cold SFM and washed three times using ice cold SFM. Organoids were then dissociated by resuspension in Trypsin+10 μM Y-27 for 4 min followed by quenching in DMEM supplemented with 10% FBS and washing. Coating media was removed from 384-well plates and organoids plated at 7000 cells/well after counting using hemocytometer and cultured for 24 hr. Seeding media was then removed and replaced with complete LWRN media and changed daily for 7 days until cultures became confluent and tissue patterning was observed.
384-well plates were imaged with fluorescent microscopy on a Nikon Eclipse TI2 automated microscope. For quantification of wave dynamics, organoids were imaged every 10-30 min. Tracking and segmentation of single cells in time lapse images in FIG. 2 was performed using the MATLAB program p53Cinema (Reyes et al., 2019). Analysis of the extracted data was performed in MATLAB. For the ERK activity heat maps in FIG. 3, images of the ERK-KTRmRuby2 and the H2B-iRFP670 were captured every 7 min for 24 hr. For each frame, individual nuclei were segmented using a MATLAB script developed in-house that identifies nuclei based on the H2B-iRFP670 images. The cytoplasmic ERK-KTRmRuby2 signal was obtained by creating a two pixel wide annulus surrounding the nucleus and averaging the intensity. Cells with active ERK were identified as having a mean ERK-KTR cytoplasmic signal>the mean ERK-KTR nuclear signal. The density-based spatial clustering of applications with noise algorithm (dbscan, MATLAB, 2021b) was performed on the centroids of ERK active cells to identify spatial clusters of cells with active ERK. A boundary was drawn around the spatial clusters using the boundary algorithm in MATLAB. The ERK positive regions of each frame were summed up to generate the heat map in MATLAB.
Since ERK waves are largely restricted to the post-mitotic, differentiated compartments in our gut organoid monolayer model, we hypothesized that ERK waves may help regulate the patterning observed in the GiLA1 monolayers by restricting the stem cell compartment. To test this hypothesis, we asked if global activation of ERK activity could disrupt the patterning of the organoid monolayers. a well-established activator of the ERK pathway, phorbol 12-myristate 13-acetate (PMA) was used to acutely activate ERK signaling across the monolayer. […] To determine if nodes re-formed once ERK activity returned to baseline, we treated GiLA1 monolayers with a pulse of 100 nM PMA for 1 min.

ERK = ERK kinase translocation reporter (ERK-KTR) activity in GiLA1 organoid monolayers; settings: for time to activation of ERK: GiLA1 monolayers, ERK activation methods compared
Protocol: 384-well plates were imaged with fluorescent microscopy on a Nikon Eclipse TI2 automated microscope. For quantification of wave dynamics, organoids were imaged every 10-30 min. Tracking and segmentation of single cells in time lapse images in FIG. 2 was performed using the MATLAB program p53Cinema (Reyes et al., 2019). Analysis of the extracted data was performed in MATLAB. For the ERK activity heat maps in FIG. 3, images of the ERK-KTRmRuby2 and the H2B-iRFP670 were captured every 7 min for 24 hr. For each frame, individual nuclei were segmented using a MATLAB script developed in-house that identifies nuclei based on the H2B-iRFP670 images. The cytoplasmic ERK-KTRmRuby2 signal was obtained by creating a two pixel wide annulus surrounding the nucleus and averaging the intensity. Cells with active ERK were identified as having a mean ERK-KTR cytoplasmic signal>the mean ERK-KTR nuclear signal. The density-based spatial clustering of applications with noise algorithm (dbscan, MATLAB, 2021b) was performed on the centroids of ERK active cells to identify spatial clusters of cells with active ERK. A boundary was drawn around the spatial clusters using the boundary algorithm in MATLAB. The ERK positive regions of each frame were summed up to generate the heat map in MATLAB. MAPK/ERK signaling is a critical regulatory pathway involved in maintaining homeostasis of epithelia in the gut (Wei et al., 2020). To assess ERK activity in human organoid monolayers over time, we utilized a well-characterized ERK kinase translocation reporter (ERK-KTR) (Regot et al., 2014). The ERK-KTR utilizes a bipartite nuclear localization signal (NLS) and nuclear export signal (NES) to transform ERK kinase activity into a nuclear to cytoplasmic shuttling event that is easily quantified by microscopy in organoid monolayers (FIG. 3A). We transduced the GiLA1 organoid line with a H2B-iRFP670 nuclear marker and ERK-KTR-mRuby2 reporter to perform nuclear and cytoplasmic segmentation and calculate nuclear-to-cytoplasmic ratios of the ERK-KTR (FIG. 3A, FIG. 3B and FIG. 9A).

Wnt signaling = test: TopGFP Wnt reporter in organoid monolayers; settings: 3 μM pyrvinium, 72 hr
Protocol: Organoids were treated with either 3 μM pyrvinium to block Wnt signaling or 10 μM GSK-3 inhibitor to stimulate the Wnt pathway for 72 hr. Cells were fixed and stained for DAPI. Total GFP fluorescence across the monolayer was measured and normalized by mCherry control to obtain TopGFP measurements per condition. Significance between treatment groups was determined by t-test. Scale bar=100 μm.

Compound | ERK waves and tropism towards dying cells [1] | loss of patterning (cell clusters) ([2]; 100 nM PMA, by 24 hr post-treatment (FIG. 4D-F)) | speed of node loss / patterning defects [2] | node and ERK-KTR activity after pulse, washout and chase ([2]; PMA pulse 1 min, washout, chase for 24 hr (FIG. 4G bottom)) | nodes after pulse treatment ([2]; pulse of 100 nM PMA for 1 min) | re-formation of nodes after pulse treatment ([2]; pulse of 100 nM PMA for 1 min, by 48 hr (FIG. 4G)) | ERK activity after continuous treatment (ERK; 100 nM PMA, 20-30 min (FIGS. 4B and C)) | time to activation of ERK (ERK) | ERK levels after pulse treatment, later (ERK; pulse of 100 nM PMA for 1 min, after washout) | ERK activation after pulse treatment (ERK; pulse of 100 nM PMA for 1 min, read after 30 min) | Wnt signaling (TopGFP normalized by mCherry) (Wnt signaling)
COc1cc2ncnc(Nc3ccc(F)c(Cl)c3)c2cc1OCCCN1CCOCC1 [Gefitinib] | did not induce ERK waves or display tropism towards dying cells | – | – | – | – | – | – | – | – | – | –
CCCCCCCCCCCCCC(=O)O[C@@H]1[C@@H](C)[C@@]2(O)[C@@H](C=C(CO)C[C@]3(O)C(=O)C(C)=C[C@@H]23)[C@@H]2C(C)(C)[C@]12OC(C)=O [PMA, phorbol 12-myristate 13-acetate] | – | almost complete loss of cell clusters | rapid node loss | node loss and resuppression of ERK activity | node loss | nodes did not re-form | immediate hyperactivated ERK was observed in all cells | within hours | ERK levels returned to normal | ERK activation in all cells | –
Cc1cc(/C=C/c2ccc3cc(N(C)C)ccc3[n+]2C)c(C)n1-c1ccccc1 [pyrvinium] | – | – | took days to induce patterning defects | – | – | – | – | within hours | – | – | Inhibits Wnt Signaling
